Test results: US9169254B2, “Spiroimidazolone derivative” (Chugai Seiyaku Kabushiki Kaisha, priority 2009, dated 2015)

Biological target: T1, human PTH1 receptor (Homo sapiens, UniProt Q03431)
T1 sequence (Q03431 27-593): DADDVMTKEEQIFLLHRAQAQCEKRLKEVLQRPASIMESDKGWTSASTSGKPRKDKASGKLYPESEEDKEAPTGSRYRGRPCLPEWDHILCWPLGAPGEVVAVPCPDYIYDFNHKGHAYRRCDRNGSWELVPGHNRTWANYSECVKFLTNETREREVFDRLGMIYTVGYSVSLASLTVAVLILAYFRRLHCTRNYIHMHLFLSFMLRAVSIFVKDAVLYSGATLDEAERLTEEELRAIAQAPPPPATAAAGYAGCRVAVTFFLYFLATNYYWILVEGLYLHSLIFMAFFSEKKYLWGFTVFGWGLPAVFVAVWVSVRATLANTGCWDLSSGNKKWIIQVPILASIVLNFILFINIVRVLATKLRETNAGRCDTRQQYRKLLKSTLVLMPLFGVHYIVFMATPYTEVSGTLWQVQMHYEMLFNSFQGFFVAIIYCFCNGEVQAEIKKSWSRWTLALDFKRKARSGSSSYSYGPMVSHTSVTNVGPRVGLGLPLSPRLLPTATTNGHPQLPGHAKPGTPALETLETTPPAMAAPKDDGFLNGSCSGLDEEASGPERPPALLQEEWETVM
Assay: In vitro cAMP signal activity in HKRK-B7 cells (LLC-PK1 cells overexpressing the human PTH1 receptor)
Format: cell-based
Conditions: HKRK-B7 cells; compound at 1×10^−3 M; cAMP produced as percentage of that produced by hPTH(1-34) at 100 nM

| SMILES | cAMP production activity (%) |
| --- | --- |
| Cc1cc(N2CCCCC2=O)cc(C)c1/C=C/S(=O)(=O)N1CCC2(CC1)N=C(C1CCC(C)CC1)NC2=O (centres unmarked) [Compound 516, 8-{(E)-2-[2,6-dimethyl-4-(2-oxo-piperidin-1-yl)-phenyl]-ethenesulfonyl}-2-(4-methyl-cyclohexyl)-1,3,8-triaza-spiro[4.5]dec-1-en-4-one] | 73 |
| CC(=O)N(C)Cc1cc(C)c(/C=C/S(=O)(=O)N2CCC3(CC2)N=C(C2CCC(C)CC2)NC3=O)c(C)c1 (centres unmarked) [Compound 517, N-(3,5-dimethyl-4-{(E)-2-[2-(4-methyl-cyclohexyl)-4-oxo-1,3,8-triaza-spiro[4.5]dec-1-ene-8-sulfonyl]-vinyl}-benzyl)-N-methyl-acetamide] | 58 |
| Cc1cc(CN2C(=O)CNC2=O)cc(C)c1/C=C/S(=O)(=O)N1CCC2(CC1)N=C(C1CCC(C)CC1)NC2=O (centres unmarked) [Compound 518, 3-(3,5-dimethyl-4-{(E)-2-[2-(4-methyl-cyclohexyl)-4-oxo-1,3,8-triaza-spiro[4.5]dec-1-ene-8-sulfonyl]-vinyl}-benzyl)-imidazolidine-2,4-dione] | 68 |
| Cc1cc(CN2C(=O)NC(C)(C)C2=O)cc(C)c1/C=C/S(=O)(=O)N1CCC2(CC1)N=C(C1CCC(C)CC1)NC2=O (centres unmarked) [Compound 519, 3-(3,5-dimethyl-4-{(E)-2-[2-(4-methyl-cyclohexyl)-4-oxo-1,3,8-triaza-spiro[4.5]dec-1-ene-8-sulfonyl]-vinyl}-benzyl)-5,5-dimethyl-imidazolidine-2,4-dione] | 72 |
| Cc1cc(CN2CCCC2=O)cc(C)c1/C=C/S(=O)(=O)N1CCC2(CC1)N=C(C1CCC(C)CC1)NC2=O (centres unmarked) [Compound 520, 8-{(E)-2-[2,6-dimethyl-4-(2-oxo-pyrrolidin-1-ylmethyl)-phenyl]-ethenesulfonyl}-2-(4-methyl-cyclohexyl)-1,3,8-triaza-spiro[4.5]dec-1-en-4-one] | 28 |
| Cc1cc(CN2C(=O)CCC2=O)cc(C)c1/C=C/S(=O)(=O)N1CCC2(CC1)N=C(C1CCC(C)CC1)NC2=O (centres unmarked) [Compound 521, 1-(3,5-dimethyl-4-{(E)-2-[2-(4-methyl-cyclohexyl)-4-oxo-1,3,8-triaza-spiro[4.5]dec-1-ene-8-sulfonyl]-vinyl}-benzyl)-pyrrolidine-2,5-dione] | 55 |
| CC(=O)NCc1cc(C)c(/C=C/S(=O)(=O)N2CCC3(CC2)N=C(C2CCC(C)CC2)NC3=O)c(C)c1 (centres unmarked) [Compound 522, N-(3,5-dimethyl-4-{(E)-2-[2-(4-methyl-cyclohexyl)-4-oxo-1,3,8-triaza-spiro[4.5]dec-1-ene-8-sulfonyl]-vinyl}-benzyl)-acetamide] | 82 |
| CC(=O)N(C)c1cc(F)c(/C=C/S(=O)(=O)N2CCC3(CC2)N=C(C2CCC(C)CC2)NC3=O)c(F)c1 (centres unmarked) [Compound 523, N-(3,5-difluoro-4-{(E)-2-[2-(4-methyl-cyclohexyl)-4-oxo-1,3,8-triaza-spiro[4.5]dec-1-ene-8-sulfonyl]-vinyl}-phenyl)-N-methyl-acetamide] | 89 |
| O=C1NC(c2cccc(C(F)(F)F)c2)=NC12CCN(S(=O)(=O)/C=C/c1cccc3c1ccn3C[C@H](O)CO)CC2 [Compound 524, 8-{(E)-2-[1-((S)-2,3-dihydroxy-propyl)-1H-indol-4-yl]-ethenesulfonyl}-2-(3-trifluoromethyl-phenyl)-1,3,8-triaza-spiro[4.5]dec-1-en-4-one] | 90 |
| Cc1cc(N2C(=O)C[C@H](NC(=O)OC(C)(C)C)C2=O)ccc1/C=C/S(=O)(=O)N1CCC2(CC1)N=C(c1cccc(C(F)(F)F)c1)NC2=O [Compound 525, [(S)-1-(3-methyl-4-{(E)-2-[4-oxo-2-(3-trifluoromethyl-phenyl)-1,3,8-triaza-spiro[4.5]dec-1-ene-8-sulfonyl]-vinyl}-phenyl)-2,5-dioxo-pyrrolidin-3-yl]-carbamic acid tert-butyl ester] | 14 |
| O=C1NC(c2cccc(OC(F)(F)F)c2)=NC12CCN(S(=O)(=O)/C=C/c1cccc3c1ccn3C[C@H](O)CO)CC2 [Compound 526, 8-{(E)-2-[1-((S)-2,3-dihydroxy-propyl)-1H-indol-4-yl]-ethenesulfonyl}-2-(3-trifluoromethoxy-phenyl)-1,3,8-triaza-spiro[4.5]dec-1-en-4-one] | 83 |
| Cc1cc(OCCC(O)CO)ccc1/C=C/S(=O)(=O)N1CCC2(CC1)N=C(c1cccc(OC(F)(F)F)c1)NC2=O (centres unmarked) [Compound 531, 8-{(E)-2-[4-(3,4-dihydroxy-butoxy)-2-methyl-phenyl]-ethenesulfonyl}-2-(3-trifluoromethoxy-phenyl)-1,3,8-triaza-spiro[4.5]dec-1-en-4-one] | 69 |

The next lines start with the values.

| cAMP production activity (%) | SMILES |
| --- | --- |
| 93 | Cc1cc(C(=O)N2CCN(C)CC2)ccc1/C=C/S(=O)(=O)N1CCC2(CC1)N=C(c1cccc(OC(F)(F)F)c1)NC2=O [Compound 527, 8-{(E)-2-[2-methyl-4-(4-methyl-piperazine-1-carbonyl)-phenyl]-ethenesulfonyl}-2-(3-trifluoromethoxy-phenyl)-1,3,8-triaza-spiro[4.5]dec-1-en-4-one] |
| 55 | Cc1cc(NCC(=O)N2CCN(C)CC2)ccc1/C=C/S(=O)(=O)N1CCC2(CC1)N=C(c1cccc(OC(F)(F)F)c1)NC2=O [Compound 528, 8-((E)-2-{2-methyl-4-[2-(4-methyl-piperazin-1-yl)-2-oxo-ethylamino]-phenyl}-ethenesulfonyl)-2-(3-trifluoromethoxy-phenyl)-1,3,8-triaza-spiro[4.5]dec-1-en-4-one] |
| 68 | Cc1cc(NCC(N)=O)ccc1/C=C/S(=O)(=O)N1CCC2(CC1)N=C(c1cccc(OC(F)(F)F)c1)NC2=O [Compound 529, 2-(3-methyl-4-{(E)-2-[4-oxo-2-(3-trifluoromethoxy-phenyl)-1,3,8-triaza-spiro[4.5]dec-1-ene-8-sulfonyl]-vinyl}-phenylamino)-acetamide] |
| 18 | Cc1cc(S(=O)(=O)Nc2ccncc2)ccc1/C=C/S(=O)(=O)N1CCC2(CC1)N=C(c1cccc(OC(F)(F)F)c1)NC2=O [Compound 530, 3-methyl-4-{(E)-2-[4-oxo-2-(3-trifluoromethoxy-phenyl)-1,3,8-triaza-spiro[4.5]dec-1-ene-8-sulfonyl]-vinyl}-N-pyridin-4-yl-benzenesulfonamide] |
| 80 | Cc1cc(N(CCO)C(=O)NCCO)cc(C)c1/C=C/S(=O)(=O)N1CCC2(CC1)N=C(c1cccc(OC(F)(F)F)c1)NC2=O [Compound 532, 1-(3,5-dimethyl-4-{(E)-2-[4-oxo-2-(3-trifluoromethoxy-phenyl)-1,3,8-triaza-spiro[4.5]dec-1-ene-8-sulfonyl]-vinyl}-phenyl)-1,3-bis-(2-hydroxy-ethyl)-urea] |
| 69 | Cc1cc(N(CCO)C(=O)N(C)CCO)cc(C)c1/C=C/S(=O)(=O)N1CCC2(CC1)N=C(c1cccc(OC(F)(F)F)c1)NC2=O [Compound 533, 1-(3,5-dimethyl-4-{(E)-2-[4-oxo-2-(3-trifluoromethoxy-phenyl)-1,3,8-triaza-spiro[4.5]dec-1-ene-8-sulfonyl]-vinyl}-phenyl)-1,3-bis-(2-hydroxy-ethyl)-3-methyl-urea] |
| 39 | Cc1cc(N(C2CCOCC2)S(C)(=O)=O)cc(C)c1/C=C/S(=O)(=O)N1CCC2(CC1)N=C(c1cccc(OC(F)(F)F)c1)NC2=O [Compound 534, N-(3,5-dimethyl-4-{(E)-2-[4-oxo-2-(3-trifluoromethoxy-phenyl)-1,3,8-triaza-spiro[4.5]dec-1-ene-8-sulfonyl]-vinyl}-phenyl)-N-(tetrahydro-pyran-4-yl)-methane sulfonamide] |
| 83 | Cc1cc(C(=O)N2CCC(O)CC2)cc(C)c1/C=C/S(=O)(=O)N1CCC2(CC1)N=C(c1ccc(F)c(C(F)(F)F)c1)NC2=O [Compound 535, 2-(4-fluoro-3-trifluoromethyl-phenyl)-8-{(E)-2-[4-(4-hydroxy-piperidine-1-carbonyl)-2,6-dimethyl-phenyl]-ethenesulfonyl}-1,3,8-triaza-spiro[4.5]dec-1-en-4-one] |
| 72 | CCCCCCCCCC1=NC2(CCN(S(=O)(=O)/C=C/c3ccc(N4C(=O)CNC4=O)cc3C)CC2)C(=O)N1 [Compound 536, 3-{3-Methyl-4-[(E)-2-(2-nonyl-4-oxo-1,3,8-triaza-spiro[4.5]dec-1-ene-8-sulfonyl)-vinyl]-phenyl}-imidazolidine-2,4-dione] |
| 3.9 | CCCCCCCCCC1=NC2(CCN(S(=O)(=O)/C=C/c3ccc(N4C(=O)CNC4=O)cc3C(F)(F)F)CC2)C(=O)N1 [Compound 537, 3-{4-[(E)-2-(2-nonyl-4-oxo-1,3,8-triaza-spiro[4.5]dec-1-ene-8-sulfonyl)-vinyl]-3-trifluoromethyl-phenyl}-imidazolidine-2,4-dione] |
| 133 | CCCCCCCCCC1=NC2(CCN(S(=O)(=O)/C=C/c3ccc(N4C(=O)COCC4=O)cc3C)CC2)C(=O)N1 [Compound 538, 4-{3-methyl-4-[(E)-2-(2-nonyl-4-oxo-1,3,8-triaza-spiro[4.5]dec-1-ene-8-sulfonyl)-vinyl]-phenyl}-morpholine-3,5-dione] |
